Results as given in patent US10597388B2, “Pyridazinone herbicides” (FMC CORPORATION, priority 2014, dated 2020).

How the values were obtained:
Assay in all cases: Test D controlled growth environment herbicide test, pre- and postemergence
Assay type in all cases: in vivo
[1] = test system: field poppy (Papaver rhoeas)
In short: (§1)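 Pre-emergence: seeds sown in silt loam soil were sprayed with compound in a non-phytotoxic solvent mix containing surfactant. Post-emergence: plants at 2 to 18 cm (1- to 4-leaf stage) in peat moss/vermiculite medium got the same formulation. Visual 0–100 rating versus controls after 14 to 21 d.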

[2] = test system: chickweed (common chickweed, Stellaria media)
In short: as §1

[3] = test system: barley, spring (spring barley, Hordeum vulgare)
In short: as §1

[4] = test system: field violet (Viola arvensis)
In short: as §1

[5] = test system: wheat, winter (winter wheat, Triticum aestivum)
In short: as §1

[6] = test system: chamomile (scentless chamomile, Matricaria inodora)
In short: as §1

[7] = test system: speedwell (bird's-eye speedwell, Veronica persica)
In short: as §1

[8] = test system: oat, wild (wild oat, Avena fatua)
In short: as §1

[9] = test system: radish, wild (wild radish, Raphanus raphanistrum)
In short: as §1

[10] = test system: mustard, wild (wild mustard, Sinapis arvensis)
In short: as §1

[11] = test system: deadnettle (henbit deadnettle, Lamium amplexicaule)
In short: as §1

[12] = test system: oilseed rape (Brassica napus)
In short: as §1

kochia (Kochia scoparia) = test system: kochia (Kochia scoparia)
In short: as §1

[13] = test system: Russian thistle (Salsola kali)
In short: as §1

[14] = Postemergence, 31 g ai/ha, scale 0 to 100 (0 no effect, 100 complete control)
[15] = Postemergence, 125 g ai/ha, visual rating on scale 0 (no effect) to 100 (complete control), 14 to 21 d
[16] = Postemergence, 250 g ai/ha, scale 0 to 100 (0 no effect, 100 complete control)
[17] = Preemergence, 125 g ai/ha, scale 0 to 100 (0 no effect, 100 complete control)
[18] = Preemergence, 250 g ai/ha, scale 0 to 100, 0 no effect, 100 complete control
[19] = postemergence, 62 g ai/ha, scale 0 to 100, 0 no effect, 100 complete control

Structure (SMILES): Cc1nn(C)c(=O)c(-c2cccc3ccc(Br)cc23)c1O [Compound 126]
- Field Poppy plant response rating [1, 14]: 25
- Plant response rating, Field Poppy [1, 15]: 75
- Plant response rating, Field Poppy [1, 16]: 85
- Plant response rating (scale of 0 to 100), Field Poppy ([1]; Preemergence, 31 g ai/ha): 30
- Plant response rating (scale of 0 to 100), Field Poppy ([1]; Preemergence, 62 g ai/ha): 45
- Plant response rating, Field Poppy [1, 17]: 90
- Plant response rating, Field Poppy [1, 18]: 95
- Plant response rating, Field Poppy [1, 19]: 55
- Chickweed plant response rating [2, 14]: 80
- Plant response rating, Chickweed [2, 15]: 100
- Plant response rating, Chickweed [2, 16]: 100
- Plant response rating (scale of 0 to 100), Chickweed ([2]; Preemergence, 31 g ai/ha): 70
- Plant response rating (scale of 0 to 100), Chickweed ([2]; Preemergence, 62 g ai/ha): 98
- Plant response rating, Chickweed [2, 17]: 100
- Plant response rating, Chickweed [2, 18]: 100
- Plant response rating, Chickweed [2, 19]: 98
- Barley, Spring plant response rating [3, 14]: 0
- Plant response rating, Barley, Spring [3, 15]: 10
- Plant response rating, Barley, Spring [3, 16]: 10
- Plant response rating (scale of 0 to 100), Barley, Spring ([3]; Preemergence, 31 g ai/ha): 0
- Plant response rating, Barley, Spring ([3]; Preemergence, 62 g ai/ha, scale 0 to 100 (0 no effect, 100 complete control)): 0
- Plant response rating, Barley, Spring [3, 17]: 0
- Plant response rating, Barley, Spring [3, 18]: 0
- Plant response rating, Barley, Spring [3, 19]: 0
- Field Violet plant response rating [4, 14]: 85
- Plant response rating, Field Violet [4, 15]: 90
- Plant response rating, Field Violet [4, 16]: 100
- Plant response rating (scale of 0 to 100), Field Violet ([4]; Preemergence, 31 g ai/ha): 85
- Plant response rating (scale of 0 to 100), Field Violet ([4]; Preemergence, 62 g ai/ha): 85
- Plant response rating, Field Violet [4, 17]: 100
- Plant response rating, Field Violet [4, 18]: 100
- Plant response rating, Field Violet [4, 19]: 85
- Wheat, Winter plant response rating [5, 14]: 0
- Plant response rating, Wheat, Winter [5, 15]: 0
- Plant response rating, Wheat, Winter [5, 16]: 0
- Plant response rating (scale of 0 to 100), Wheat, Winter ([5]; Preemergence, 31 g ai/ha): 0
- Plant response rating (scale of 0 to 100), Wheat, Winter ([5]; Preemergence, 62 g ai/ha): 0
- Plant response rating, Wheat, Winter [5, 17]: 0
- Plant response rating, Wheat, Winter [5, 18]: 0
- Plant response rating, Wheat, Winter [5, 19]: 0
- Chamomile plant response rating [6, 14]: 70
- Plant response rating, Chamomile [6, 15]: 98
- Plant response rating, Chamomile [6, 16]: 100
- Plant response rating (scale of 0 to 100), Chamomile ([6]; Preemergence, 31 g ai/ha): 85
- Plant response rating (scale of 0 to 100), Chamomile ([6]; Preemergence, 62 g ai/ha): 100
- Plant response rating, Chamomile [6, 17]: 100
- Plant response rating, Chamomile [6, 18]: 100
- Plant response rating, Chamomile [6, 19]: 95
- Speedwell plant response rating [7, 14]: 60
- Plant response rating, Speedwell [7, 15]: 100
- Plant response rating, Speedwell [7, 16]: 100
- Plant response rating (scale of 0 to 100), Speedwell ([7]; Preemergence, 31 g ai/ha): 70
- Plant response rating (scale of 0 to 100), Speedwell ([7]; Preemergence, 62 g ai/ha): 100
- Plant response rating, Speedwell [7, 17]: 100
- Plant response rating, Speedwell [7, 18]: 100
- Plant response rating, Speedwell [7, 19]: 65
- Oat, Wild plant response rating [8, 14]: 60
- Plant response rating, Oat, Wild [8, 15]: 80
- Plant response rating, Oat, Wild [8, 16]: 90
- Plant response rating (scale of 0 to 100), Oat, Wild ([8]; Preemergence, 31 g ai/ha): 65
- Plant response rating (scale of 0 to 100), Oat, Wild ([8]; Preemergence, 62 g ai/ha): 70
- Plant response rating, Oat, Wild [8, 17]: 80
- Plant response rating, Oat, Wild [8, 18]: 90
- Plant response rating, Oat, Wild [8, 19]: 70
- Radish, Wild plant response rating [9, 14]: 40
- Plant response rating, Radish, Wild [9, 15]: 75
- Plant response rating, Radish, Wild [9, 16]: 95
- Plant response rating (scale of 0 to 100), Radish, Wild ([9]; Preemergence, 31 g ai/ha): 5
- Plant response rating (scale of 0 to 100), Radish, Wild ([9]; Preemergence, 62 g ai/ha): 15
- Plant response rating, Radish, Wild [9, 17]: 75
- Plant response rating, Radish, Wild [9, 18]: 90
- Plant response rating, Radish, Wild [9, 19]: 70
- Mustard, Wild plant response rating [10, 14]: 80
- Plant response rating, Mustard, Wild [10, 15]: 90
- Plant response rating, Mustard, Wild [10, 16]: 100
- Plant response rating (scale of 0 to 100), Mustard, Wild ([10]; Preemergence, 31 g ai/ha): 60
- Plant response rating (scale of 0 to 100), Mustard, Wild ([10]; Preemergence, 62 g ai/ha): 70
- Plant response rating, Mustard, Wild [10, 17]: 70
- Plant response rating, Mustard, Wild [10, 18]: 98
- Plant response rating, Mustard, Wild [10, 19]: 80
- Deadnettle plant response rating [11, 14]: 40
- Plant response rating, Deadnettle [11, 15]: 80
- Plant response rating, Deadnettle [11, 16]: 85
- Plant response rating (scale of 0 to 100), Deadnettle ([11]; Preemergence, 31 g ai/ha): 0
- Plant response rating (scale of 0 to 100), Deadnettle ([11]; Preemergence, 62 g ai/ha): 45
- Plant response rating, Deadnettle [11, 17]: 70
- Plant response rating, Deadnettle [11, 18]: 80
- Plant response rating, Deadnettle [11, 19]: 70
- Oilseed Rape plant response rating [12, 14]: 60
- Plant response rating, Oilseed Rape [12, 15]: 75
- Plant response rating, Oilseed Rape [12, 16]: 85
- Plant response rating (scale of 0 to 100), Oilseed Rape ([12]; Preemergence, 31 g ai/ha): 0
- Plant response rating (scale of 0 to 100), Oilseed Rape ([12]; Preemergence, 62 g ai/ha): 0
- Plant response rating, Oilseed Rape [12, 17]: 15
- Plant response rating, Oilseed Rape [12, 18]: 90
- Plant response rating, Oilseed Rape [12, 19]: 65
- Kochia plant response rating (kochia (Kochia scoparia); [14]): 75
- Plant response rating, Kochia (kochia (Kochia scoparia); [15]): 95
- Plant response rating, Kochia (kochia (Kochia scoparia); [16]): 100
- Plant response rating (scale of 0 to 100), Kochia (kochia (Kochia scoparia); Preemergence, 31 g ai/ha): 10
- Plant response rating (scale of 0 to 100), Kochia (kochia (Kochia scoparia); Preemergence, 62 g ai/ha): 20
- Plant response rating, Kochia (kochia (Kochia scoparia); [17]): 75
- Plant response rating, Kochia (kochia (Kochia scoparia); [18]): 95
- Plant response rating, Kochia (kochia (Kochia scoparia); [19]): 80
- Russian Thistle plant response rating [13, 14]: 30
- Plant response rating, Russian Thistle [13, 15]: 80
- Plant response rating, Russian Thistle [13, 16]: 85
- Plant response rating (scale of 0 to 100), Russian Thistle ([13]; Preemergence, 31 g ai/ha): 0
- Plant response rating (scale of 0 to 100), Russian Thistle ([13]; Preemergence, 62 g ai/ha): 0
- Plant response rating, Russian Thistle [13, 17]: 5
- Plant response rating, Russian Thistle [13, 18]: 15
- Plant response rating, Russian Thistle [13, 19]: 40
